Data taken from patent US20230085307A1, “PYRIDAZINONE COMPOUND AND HERBICIDE” (NISSAN CHEMICAL CORPORATION, priority 2019, published 2023).

Experiments:
[1] = system: Japanese bulrush; experiment: Test Example 2: herbicidal activity, application during weed generation under submerged conditions (Table 17, symbol B); format: in vivo, Japanese bulrush (Schoenoplectus juncoides); settings: AAH 320 g/ha; application during weed generation, submerged conditions
Method in brief: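 Mixed weed seedlings in alluvial soil under a 4 cm water layer, greenhouse-grown at 25–30° C. Compound given as a diluted emulsion into the floodwater at the 1–2 leaf stage; response graded after three weeks.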

[2] = system: southern crabgrass; experiment: Test Example 5: herbicidal effect by foliage application, plastic box (Table 20, symbol F); format: in vivo, southern crabgrass (Digitaria ciliaris); settings: foliage application, three weeks after application; for F: southern crabgrass, herbicidal effect: AAH 320 g/ha
Method in brief: (§1)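 Sow seeds spot-wise in sterilized diluvial soil; cover with ~1.5 cm soil. Grow 14 days in greenhouse, 25° C. to 30° C. Spray foliage with emulsion diluted to predetermined amount. Rate effect after 3 weeks.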

[3] = system: green foxtail; experiment: Test Example 4: herbicidal effect by soil treatment (Table 19, symbol G); format: in vivo, green foxtail (Setaria viridis); settings: amount of applied herbicide 320 g/ha
Method in brief: (§2)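 Soil-surface application: an emulsion agent diluted with water to the predetermined dose is sprayed uniformly over seeds lying under roughly 1.5 cm of sterilized diluvial soil. Boxes stay in a greenhouse at 25° C. to 30° C. Three weeks later, each species is graded on previously defined criteria.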

[4] = system: redroot pigweed; experiment: Test Example 4: herbicidal effect by soil treatment (Table 19, symbol N); format: in vivo, redroot pigweed (Amaranthus retroflexus); settings: amount of applied herbicide 320 g/ha
Method in brief: as §2

[5] = system: barnyard grass; experiment: Test Example 4: herbicidal effect by soil treatment (Table 19, symbol H); format: in vivo, barnyard grass (Echinochloa crus-galli); settings: amount of applied herbicide 320 g/ha
Method in brief: as §2

[6] = system: wild oat; experiment: Test Example 5: herbicidal effect by foliage application, plastic box (Table 20, symbol I); format: in vivo, wild oat (Avena fatua); settings: foliage application, three weeks after application; for I: wild oat, herbicidal effect: AAH 320 g/ha
Method in brief: as §1

[7] = system: barnyard grass; experiment: Test Example 5: herbicidal effect by foliage application, plastic box (Table 20, symbol H); format: in vivo, barnyard grass (Echinochloa crus-galli); settings: foliage application, three weeks after application; for H: barnyard grass, herbicidal effect: AAH 320 g/ha
Method in brief: as §1

[8] = system: oval-leafed pondweed; experiment: Test Example 1: herbicidal activity, application before weed generation under submerged conditions (Table 16, symbol C); format: in vivo, oval-leafed pondweed (Monochoria vaginalis); settings: 320 g/ha applied herbicide
Method in brief: (§3)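 Alluvial soil was flooded to 4 cm depth, weed seeds were sown mixed and 2.5-leaf rice seedlings were transplanted. On sowing day, the compound's emulsion, diluted in water to a set dose, was applied to the water surface. Plants grew at 25–30 °C and were scored 0–5 after three weeks.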

[9] = system: persian speedwell; experiment: Test Example 4: herbicidal effect by soil treatment (Table 19, symbol R); format: in vivo, Persian speedwell (Veronica persica); settings: amount of applied herbicide 320 g/ha
Method in brief: as §2

[10] = system: barnyard grass; experiment: Test Example 3: herbicidal effect by foliage application, Wagner pot (Table 18, symbol H); format: in vivo, barnyard grass (Echinochloa crus-galli); settings: 320 g/ha
Method in brief: (§4)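 Plants were sown in alluvial soil held under 0.1–0.5 cm standing water and grown 14 days in a greenhouse at 25–30 °C. An emulsifiable formulation, water-diluted to the set dose, was then sprayed onto the foliage, and effects were scored three weeks later using previously defined criteria.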

[11] = system: persian speedwell; experiment: Test Example 5: herbicidal effect by foliage application, plastic box (Table 20, symbol R); format: in vivo, Persian speedwell (Veronica persica); settings: foliage application, three weeks after application; for R: persian speedwell, herbicidal effect: AAH 320 g/ha
Method in brief: as §1

[12] = system: rice flat sedge; experiment: Test Example 3: herbicidal effect by foliage application, Wagner pot (Table 18, symbol E); format: in vivo, rice flat sedge (Cyperus iria); settings: 320 g/ha
Method in brief: as §4

[13] = system: chickweed; experiment: Test Example 4: herbicidal effect by soil treatment (Table 19, symbol P); format: in vivo, common chickweed (Stellaria media); settings: amount of applied herbicide 320 g/ha
Method in brief: as §2

[14] = system: velvetleaf; experiment: Test Example 4: herbicidal effect by soil treatment (Table 19, symbol M); format: in vivo, velvetleaf (Abutilon theophrasti); settings: amount of applied herbicide 320 g/ha
Method in brief: as §2

[15] = system: late watergrass; experiment: Test Example 1: herbicidal activity, application before weed generation under submerged conditions (Table 16, symbol A); format: in vivo, late watergrass (Echinochloa oryzicola); settings: 320 g/ha applied herbicide
Method in brief: as §3

[16] = system: blackgrass; experiment: Test Example 5: herbicidal effect by foliage application, plastic box (Table 20, symbol J); format: in vivo, blackgrass (Alopecurus myosuroides); settings: foliage application, three weeks after application; for J: blackgrass, herbicidal effect: AAH 320 g/ha
Method in brief: as §1

CCCC(=O)Oc1c(C)nn(C)c(=O)c1-c1c(-c2ccc(OC)c(OC)c2)sc2ccccc12 [1-073]
herbicidal effect rating, B: Japanese bulrush [1]: 5 (Herbicidal rate of 90% or more (almost completely withered)) | herbicidal effect grade, F: southern crabgrass ([2]; 320 g/ha): 5 (Herbicidal rate of 90% or more (almost completely withered)) | herbicidal effect rating, G: green foxtail [3]: 5 (Herbicidal rate of 90% or more (almost completely withered)) | herbicidal effect rating, N: redroot pigweed [4]: 4 (Herbicidal rate of 70% or more and less than 90%) | herbicidal effect rating, H: barnyard grass [5]: 4 (Herbicidal rate of 70% or more and less than 90%) | herbicidal effect grade, I: wild oat ([6]; 320 g/ha): 2 (Herbicidal rate of 20% or more and less than 40%) | herbicidal effect grade, H: barnyard grass ([7]; 320 g/ha): 5 (Herbicidal rate of 90% or more (almost completely withered)) | Herbicidal effect on C: oval-leafed pondweed (grade 0-5) [8]: 0 (Herbicidal rate of 5% or less (almost no effect)) | herbicidal effect rating, R: persian speedwell [9]: 5 (Herbicidal rate of 90% or more (almost completely withered)) | herbicidal effect on H (barnyard grass), rating 0-5 [10]: 5 (Herbicidal rate of 90% or more (almost completely withered)) | herbicidal effect grade, R: persian speedwell ([11]; 320 g/ha): 5 (Herbicidal rate of 90% or more (almost completely withered)) | herbicidal effect on E (rice flat sedge), rating 0-5 [12]: 5 (Herbicidal rate of 90% or more (almost completely withered)) | herbicidal effect rating, P: chickweed [13]: 4 (Herbicidal rate of 70% or more and less than 90%) | herbicidal effect rating, M: velvetleaf [14]: 4 (Herbicidal rate of 70% or more and less than 90%) | Herbicidal effect on A: late watergrass (grade 0-5) [15]: 5 (Herbicidal rate of 90% or more (almost completely withered)) | herbicidal effect grade, J: blackgrass ([16]; 320 g/ha): 4 (Herbicidal rate of 70% or more and less than 90%)

CCCC(=O)Oc1c(C)nn(C)c(=O)c1-c1c(-c2ccc3c(c2)OCCO3)sc2ccccc12 [1-090]
herbicidal effect rating, B: Japanese bulrush [1]: 3 (Herbicidal rate of 40% or more and less than 70%) | F: southern crabgrass, herbicidal effect [2]: 3 (Herbicidal rate of 40% or more and less than 70%) | herbicidal effect rating, G: green foxtail [3]: 3 (Herbicidal rate of 40% or more and less than 70%) | herbicidal effect rating, N: redroot pigweed [4]: 2 (Herbicidal rate of 20% or more and less than 40%) | herbicidal effect rating, H: barnyard grass [5]: 1 (Herbicidal rate of 5% or more and less than 20%) | I: wild oat, herbicidal effect [6]: 0 (Herbicidal rate of 5% or less (almost no effect)) | H: barnyard grass, herbicidal effect [7]: 4 (Herbicidal rate of 70% or more and less than 90%) | Herbicidal effect on C: oval-leafed pondweed (grade 0-5) [8]: 5 (Herbicidal rate of 90% or more (almost completely withered)) | herbicidal effect rating, R: persian speedwell [9]: 5 (Herbicidal rate of 90% or more (almost completely withered)) | herbicidal effect on H (barnyard grass), rating 0-5 [10]: 5 (Herbicidal rate of 90% or more (almost completely withered)) | R: persian speedwell, herbicidal effect [11]: 5 (Herbicidal rate of 90% or more (almost completely withered)) | herbicidal effect on E (rice flat sedge), rating 0-5 [12]: 5 (Herbicidal rate of 90% or more (almost completely withered)) | herbicidal effect rating, P: chickweed [13]: 4 (Herbicidal rate of 70% or more and less than 90%) | herbicidal effect rating, M: velvetleaf [14]: 0 (Herbicidal rate of 5% or less (almost no effect)) | Herbicidal effect on A: late watergrass (grade 0-5) [15]: 5 (Herbicidal rate of 90% or more (almost completely withered)) | J: blackgrass, herbicidal effect [16]: 2 (Herbicidal rate of 20% or more and less than 40%)

COC(=O)Oc1c(C)nn(C)c(=O)c1-c1c(-c2ccc3c(c2)OCCO3)sc2ccccc12 [1-091]
herbicidal effect rating, B: Japanese bulrush [1]: 4 (Herbicidal rate of 70% or more and less than 90%) | F: southern crabgrass, herbicidal effect [2]: 5 (Herbicidal rate of 90% or more (almost completely withered)) | herbicidal effect rating, G: green foxtail [3]: 5 (Herbicidal rate of 90% or more (almost completely withered)) | herbicidal effect rating, N: redroot pigweed [4]: 3 (Herbicidal rate of 40% or more and less than 70%) | herbicidal effect rating, H: barnyard grass [5]: 5 (Herbicidal rate of 90% or more (almost completely withered)) | I: wild oat, herbicidal effect [6]: 2 (Herbicidal rate of 20% or more and less than 40%) | H: barnyard grass, herbicidal effect [7]: 5 (Herbicidal rate of 90% or more (almost completely withered)) | Herbicidal effect on C: oval-leafed pondweed (grade 0-5) [8]: 4 (Herbicidal rate of 70% or more and less than 90%) | herbicidal effect rating, R: persian speedwell [9]: 5 (Herbicidal rate of 90% or more (almost completely withered)) | herbicidal effect on H (barnyard grass), rating 0-5 [10]: 5 (Herbicidal rate of 90% or more (almost completely withered)) | R: persian speedwell, herbicidal effect [11]: 5 (Herbicidal rate of 90% or more (almost completely withered)) | herbicidal effect on E (rice flat sedge), rating 0-5 [12]: 5 (Herbicidal rate of 90% or more (almost completely withered)) | herbicidal effect rating, P: chickweed [13]: 5 (Herbicidal rate of 90% or more (almost completely withered)) | herbicidal effect rating, M: velvetleaf [14]: 5 (Herbicidal rate of 90% or more (almost completely withered)) | Herbicidal effect on A: late watergrass (grade 0-5) [15]: 5 (Herbicidal rate of 90% or more (almost completely withered)) | J: blackgrass, herbicidal effect [16]: 3 (Herbicidal rate of 40% or more and less than 70%)

Cc1nn(C)c(=O)c(-c2c(-c3ccc4c(c3)OCCO4)sc3ccccc23)c1OC(=O)SC(C)(C)C [1-092]
herbicidal effect rating, B: Japanese bulrush [1]: 1 (Herbicidal rate of 5% or more and less than 20%) | F: southern crabgrass, herbicidal effect [2]: 3 (Herbicidal rate of 40% or more and less than 70%) | herbicidal effect rating, G: green foxtail [3]: 0 (Herbicidal rate of 5% or less (almost no effect)) | herbicidal effect rating, N: redroot pigweed [4]: 0 (Herbicidal rate of 5% or less (almost no effect)) | herbicidal effect rating, H: barnyard grass [5]: 0 (Herbicidal rate of 5% or less (almost no effect)) | I: wild oat, herbicidal effect [6]: 0 (Herbicidal rate of 5% or less (almost no effect)) | H: barnyard grass, herbicidal effect [7]: 3 (Herbicidal rate of 40% or more and less than 70%) | Herbicidal effect on C: oval-leafed pondweed (grade 0-5) [8]: 2 (Herbicidal rate of 20% or more and less than 40%) | herbicidal effect rating, R: persian speedwell [9]: 4 (Herbicidal rate of 70% or more and less than 90%) | herbicidal effect on H (barnyard grass), rating 0-5 [10]: 4 (Herbicidal rate of 70% or more and less than 90%) | R: persian speedwell, herbicidal effect [11]: 5 (Herbicidal rate of 90% or more (almost completely withered)) | herbicidal effect on E (rice flat sedge), rating 0-5 [12]: 5 (Herbicidal rate of 90% or more (almost completely withered)) | herbicidal effect rating, P: chickweed [13]: 0 (Herbicidal rate of 5% or less (almost no effect)) | herbicidal effect rating, M: velvetleaf [14]: 0 (Herbicidal rate of 5% or less (almost no effect)) | Herbicidal effect on A: late watergrass (grade 0-5) [15]: 5 (Herbicidal rate of 90% or more (almost completely withered)) | J: blackgrass, herbicidal effect [16]: 0 (Herbicidal rate of 5% or less (almost no effect))

Cc1nn(C)c(=O)c(-c2c(-c3ccc4c(c3)CCO4)sc3ccccc23)c1O [1-101]
herbicidal effect rating, B: Japanese bulrush [1]: 5 (Herbicidal rate of 90% or more (almost completely withered)) | F: southern crabgrass, herbicidal effect [2]: 5 (Herbicidal rate of 90% or more (almost completely withered)) | herbicidal effect rating, G: green foxtail [3]: 5 (Herbicidal rate of 90% or more (almost completely withered)) | herbicidal effect rating, N: redroot pigweed [4]: 4 (Herbicidal rate of 70% or more and less than 90%) | herbicidal effect rating, H: barnyard grass [5]: 5 (Herbicidal rate of 90% or more (almost completely withered)) | I: wild oat, herbicidal effect [6]: 3 (Herbicidal rate of 40% or more and less than 70%) | H: barnyard grass, herbicidal effect [7]: 4 (Herbicidal rate of 70% or more and less than 90%) | Herbicidal effect on C: oval-leafed pondweed (grade 0-5) [8]: 5 (Herbicidal rate of 90% or more (almost completely withered)) | herbicidal effect rating, R: persian speedwell [9]: 5 (Herbicidal rate of 90% or more (almost completely withered)) | herbicidal effect on H (barnyard grass), rating 0-5 [10]: 5 (Herbicidal rate of 90% or more (almost completely withered)) | R: persian speedwell, herbicidal effect [11]: 5 (Herbicidal rate of 90% or more (almost completely withered)) | herbicidal effect on E (rice flat sedge), rating 0-5 [12]: 5 (Herbicidal rate of 90% or more (almost completely withered)) | herbicidal effect rating, P: chickweed [13]: 5 (Herbicidal rate of 90% or more (almost completely withered)) | herbicidal effect rating, M: velvetleaf [14]: 0 (Herbicidal rate of 5% or less (almost no effect)) | Herbicidal effect on A: late watergrass (grade 0-5) [15]: 4 (Herbicidal rate of 70% or more and less than 90%) | J: blackgrass, herbicidal effect [16]: 4 (Herbicidal rate of 70% or more and less than 90%)
